Experimental data taken from patent US20100056468A1, “Pyrimidine Derivatives As Anticancer Agents” (University Health Network, priority 2007, published 2010).

Legend:
Mt ODCase = Mt ODCase (Methanothermobacter thermautotrophicus, UniProt O26232); test: biochemical; design: species or system M. thermoautotrophicum; conditions: reversible inhibition, 20 nM enzyme, 40 μM OMP
LOX = test: In vitro cell proliferation assay (WST.1, Table 5); format: cell-based, human; conditions: day 3
Method: (§1) These cell lines were grown in Iscove's MDM supplemented with 5% fetal calf serum (FCS), 50 μM 2-mercaptoethanol, 100 μg/ml penicillin, and 100 μg/ml streptomycin. Cell lines growing in suspension were maintained at 0.5-1.5×10^6 cell/ml, while adherent cell lines were maintained at subconfluent densities.
(§2) Cell lines were seeded in triplicate at 10^4 cells/100 μl in 96-well plates. Peripheral blood mononuclear cells were seeded in triplicate at 10^5 cells/100 μl in 96-well plate. Different test compounds were added immediately at final concentrations ranging between 0 to 100 μM. All compounds were dissolved in sterile deionized water, so water was added to the control wells. On day 3, WST.1 assay (Roche) was used to measure the effect of different test compounds on cell growth. WST.1 assay is a calorimetric assay for the nonradioactive quantification of cell proliferation, cell viability, and cytotoxicity. The assay was performed according to manufacturer's instructions (Roche). It relies on the cleavage by cellular enzymes of WST.1 (water soluble tetrazolium salt: 4-[3-(4-iodophenyl)-2-(4-nitrophenyl)-2H-5-tetrazolio]-1,3-benzene disulfonate) to formazan. The amount of formazan dye formed correlates to the number of metabolically active cells in the culture and is readily read in an ELISA microplate reader using an absorbance wavelength of 440 nm. These OD values are plotted against concentrations of different compounds and IC50 is determined for each compound.

OCI-AML-1 [1] = test: In vitro cell proliferation assay (WST.1, Table 5); format: cell-based; conditions: Homo sapiens, 72 h; OCI-AML-1, day 3
Method: as §1, §2

COLO205 = test: In vitro cell proliferation assay (WST.1, Table 5); format: cell-based; conditions: Homo sapiens, COLO 205, 72 h; COLO205, day 3
Method: as §1, §2

OCI-Ly-7 [2] = test: In vitro cell proliferation assay (WST.1, Table 5); format: cell-based; conditions: Homo sapiens, OCI-Ly7, 72 h; OCI-Ly-7, day 3
Method: as §1, §2

SNB19 = test: In vitro cell proliferation assay (WST.1, Table 5); format: cell-based; conditions: Homo sapiens, SNB-19, 72 h; SNB19, day 3
Method: as §1, §2

OCI-AML-2 = test: In vitro cell proliferation assay (WST.1, Table 5); format: cell-based; conditions: Homo sapiens, OCI-AML2, 72 h; OCI-AML-2, day 3
Method: as §1, §2

SKW3 [3] = test: In vitro cell proliferation assay (WST.1, Table 5); format: cell-based; conditions: Homo sapiens, 72 h; SKW3, day 3
Method: as §1, §2

T47D = test: In vitro cell proliferation assay (WST.1, Table 5); format: cell-based; conditions: Homo sapiens, 72 h, day 3
Method: as §1, §2

OCVR4 = test: In vitro cell proliferation assay (WST.1, Table 5); format: cell-based; conditions: Homo sapiens, 72 h; OCVR4, day 3
Method: as §1, §2

MCF7 = test: In vitro cell proliferation assay (WST.1, Table 5); format: cell-based; conditions: Homo sapiens, 72 h; MCF7, day 3
Method: as §1, §2

MDA468 = test: In vitro cell proliferation assay (WST.1, Table 5); format: cell-based; conditions: Homo sapiens, 72 h; MDA468, day 3
Method: as §1, §2

CCD967 = test: In vitro cell proliferation assay (WST.1, Table 5); format: cell-based; conditions: Homo sapiens, CCD-967, 72 h; CCD967 normal skin line, day 3
Method: as §1, §2

HS58T = test: In vitro cell proliferation assay (WST.1, Table 5); format: cell-based; conditions: Homo sapiens, 72 h, day 3
Method: as §1, §2

PC3 = test: In vitro cell proliferation assay (WST.1, Table 5); format: cell-based; conditions: Homo sapiens, PC-3, 72 h; PC3, day 3
Method: as §1, §2

OCI-My-2 [4] = test: In vitro cell proliferation assay (WST.1, Table 5); format: cell-based; conditions: Homo sapiens, 72 h; OCI-My-2, day 3
Method: as §1, §2

[5] = system: leukemias (OCI-AML-1, OCI-AML-2, SKW3), lymphomas (OCI-Ly-7), multiple myeloma (OCI-My-2); test: In vitro cell proliferation assay (WST.1), summary over cell lines; format: cell-based; conditions: Homo sapiens; OCI-AML-1, OCI-AML-2, SKW3, OCI-Ly-7, OCI-My-2; read-out: IC50 values, range over cell lines
Method: as §1, §2

OCI-AML-1 [6] = test: Apoptosis assay (Annexin V/PI, FACS); format: cell-based, human; conditions: OCI-AML-1, 4 μM
Method: (§3) Cells were seeded in duplicate at 10^5 cells/ml in 24-well plates. 4 μM final concentration of compounds Io, In or Iag (Table 2) were added immediately after seeding. Water was added to the control wells. Every 24 hr, cells were harvested, washed in PBS, and stained with Annexin V/propidium iodide (PI) (1:200) using Annexin-V-FLUOS staining kit (Roche) according to the manufacturer's instructions. Annexin V is a Ca^2+− dependent phospholipids-binding protein with high affinity for phosphatidylserine (PS). It can be used as a probe to detect PS exposure on the outer leaflet of the cell membrane and is therefore widely used for detection of apoptotic cells. Unlike apoptotic cells (Annexin V^+/PI^−), necrotic cells are Annexin V^+PI^+. PI is a DNA stain. FACS was used to analyze the staining.
(§4) To determine whether reduced expansion of different cell lines in culture with Io, In, and Iag could be attributed to a decrease in cell survival, we stained treated and control cells with Annexin V and PI. Four cell lines (OCI-AML-1, OCI-Ly7, OCI-My2, and SKW3) were cultured in presence of 4 μM of […] for 4 days. Cells were harvested daily and Annexin V/PI staining was done by FACS. Our results clearly show an increase in the percentage of apoptotic (annexin V^+PI^−) cells cultured with Io, In, or Iag compared to the control cells (Table 6). Increased cell death was first observed on day 2 of culture.

OCI-Ly-7 [7] = test: Apoptosis assay (Annexin V/PI, FACS); format: cell-based, human; conditions: OCI-Ly-7, 4 μM
Method: as §3, §4

SKW3 [8] = test: Apoptosis assay (Annexin V/PI, FACS); format: cell-based, human; conditions: SKW3, 4 μM
Method: as §3, §4

OCI-My-2 [9] = test: Apoptosis assay (Annexin V/PI, FACS); format: cell-based, human; conditions: OCI-My-2, 4 μM
Method: as §3, §4

Mt ODCase, sequence (O26232 whole entry): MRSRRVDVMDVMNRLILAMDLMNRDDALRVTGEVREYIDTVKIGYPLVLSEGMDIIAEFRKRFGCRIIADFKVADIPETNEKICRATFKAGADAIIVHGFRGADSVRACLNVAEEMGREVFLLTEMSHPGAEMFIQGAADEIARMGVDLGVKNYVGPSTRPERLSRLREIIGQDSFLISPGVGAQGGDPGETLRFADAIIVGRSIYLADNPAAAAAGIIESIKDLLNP

In the case of `[N-]=[N+]=Nc1c(F)c(=O)[nH]c(=O)n1[C@@H]1O[C@H](CO)[C@@H](O)[C@H]1O` [Io, 5-fluoro-6-azido uridine], the Ki (Mt ODCase) is reported as 357 ± 28 nM, the IC50 (LOX; Homo sapiens, 72 h) is reported as 2300 nM and the IC50 (OCI-AML-1 [1]) is reported as 600 nM. For the same compound, the IC50 (COLO205) was 3800 nM, the IC50 (OCI-Ly-7 [2]) was 700 nM and the IC50 (SNB19) was > 4000 nM. The IC50 (OCI-AML-2) was 700 nM, the IC50 (SKW3 [3]) was 400 nM and the IC50 (T47D) was > 4000 nM. For the same compound, the IC50 (OCVR4) was 1500 nM, the IC50 (MCF7) was 1000 nM and the IC50 (MDA468) was 1800 nM. For the same compound, the IC50 (CCD967) was > 4000 nM, the IC50 (HS58T) was > 4000 nM and the IC50 (PC3) was > 4000 nM. For the same compound, the IC50 (OCI-My-2 [4]) was 600 nM, the IC50 [5] was 300 to 2100 nM and the “Fold increase in % of apoptotic (annexinV+PI−) cells: drug-treated vs.control” value (from here on “Fold increase in % of apoptotic”) (OCI-AML-1 [6]; day 1) was 1.5 fold. For the same compound, the “Fold increase in % of apoptotic” value (OCI-AML-1 [6]; day 2) was 9.3 fold, the “Fold increase in % of apoptotic” value (OCI-AML-1 [6]; day 3) was 16 fold and the “Fold increase in % of apoptotic” value (OCI-Ly-7 [7]; day 1) was 0.74 fold. For the same compound, the “Fold increase in % of apoptotic” value (OCI-Ly-7 [7]; day 2) was 1.9 fold, the “Fold increase in % of apoptotic” value (OCI-Ly-7 [7]; day 3) was 6.6 fold and the “Fold increase in % of apoptotic” value (SKW3 [8]; day 1) was 1.2 fold. The “Fold increase in % of apoptotic” value (SKW3 [8]; day 2) was 4.7 fold, the “Fold increase in % of apoptotic” value (SKW3 [8]; day 3) was 4.4 fold and the “Fold increase in % of apoptotic” value (OCI-My-2 [9]; day 1) was 0.86 fold. The “Fold increase in % of apoptotic” value (OCI-My-2 [9]; day 2) was 1.9 fold and the “Fold increase in % of apoptotic” value (OCI-My-2 [9]; day 3) was 2.8 fold.
`O=Cc1c(F)c(=O)[nH]c(=O)n1C1OC(CO)C(O)C1O` (stereo not shown) [Iag] showed an IC50 (LOX; Homo sapiens, 72 h) of 300 nM, an IC50 (LOX) of 400 nM and an IC50 (OCI-AML-1 [1]) of 300 nM. For the same compound, the IC50 (OCI-Ly-7 [2]) was 600 nM, the IC50 (OCI-AML-2) was 700 nM and the IC50 (SKW3 [3]) was 300 nM. For the same compound, the IC50 (MCF7) was 23700 nM, the IC50 (MDA468) was 1900 nM and the IC50 (PC3) was > 100000 nM. For the same compound, the IC50 (OCI-My-2 [4]) was 400 nM, the IC50 [5] was 300 to 2100 nM and the “Fold increase in % of apoptotic” value (OCI-AML-1 [6]; day 1) was 1.4 fold. For the same compound, the “Fold increase in % of apoptotic” value (OCI-AML-1 [6]; day 2) was 5.3 fold, the “Fold increase in % of apoptotic” value (OCI-AML-1 [6]; day 3) was 14 fold and the “Fold increase in % of apoptotic” value (OCI-Ly-7 [7]; day 1) was 0.82 fold. The “Fold increase in % of apoptotic” value (OCI-Ly-7 [7]; day 2) was 2.1 fold, the “Fold increase in % of apoptotic” value (OCI-Ly-7 [7]; day 3) was 6.2 fold and the “Fold increase in % of apoptotic” value (SKW3 [8]; day 1) was 1.2 fold. The “Fold increase in % of apoptotic” value (SKW3 [8]; day 2) was 4.6 fold, the “Fold increase in % of apoptotic” value (SKW3 [8]; day 3) was 5.2 fold and the “Fold increase in % of apoptotic” value (OCI-My-2 [9]; day 1) was 0.77 fold. The “Fold increase in % of apoptotic” value (OCI-My-2 [9]; day 2) was 1.7 fold and the “Fold increase in % of apoptotic” value (OCI-My-2 [9]; day 3) was 2.7 fold.
